Experimental data reported in US20260007612A1, “Novel Ionizable Cationic Lipids” (Vivasor, Inc., priority 2022, published 2026).

Tested on: not listed separately
Experiment: Lipid nanoparticle characterization (size, PDI, zeta potential, encapsulation efficiency)
Assay type: physicochemical
Conditions: Fresh samples; LNP of named lipid:DSPC:Cholesterol:GM020=50:10:38.5:1.5 (DS-001 25:10:38.5:1.5); 250 μg mRNA
Method: Lipid nanoparticles were prepared with the following compositions: • ALC-0315:DSPC:Cholesterol:GM020=50:10:38.5:1.5 (and buffer) (positive control) • TU-001:DSPC:Cholesterol:GM020=50:10:38.5:1.5 (and buffer) • TU-002:DSPC:Cholesterol:GM020=50:10:38.5:1.5 (and buffer) • TU-003:DSPC:Cholesterol:GM020=50:10:38.5:1.5 (and buffer) • TU-004:DSPC:Cholesterol:GM020=50:10:38.5:1.5 (and buffer) • TU-005:DSPC:Cholesterol:GM020=50:10:38.5:1.5 (and buffer) • TU-006:DSPC:Cholesterol:GM020=50:10:38.5:1.5 (and buffer) • TU-007:DSPC:Cholesterol:GM020=50:10:38.5:1.5 (and buffer) • TU-008:DSPC:Cholesterol:GM020=50:10:38.5:1.5 (and buffer) • TU-009:DSPC:Cholesterol:GM020=50:10:38.5:1.5 (and buffer) • BAE-001:DSPC:Cholesterol:GM020=50:10:38.5:1.5 (and buffer) • BAA-001:DSPC:Cholesterol:GM020=50:10:38.5:1.5 (and buffer) • DS-001:DSPC:Cholesterol:GM020=25:10:38.5:1.5 (and buffer) • KT-001:DSPC:Cholesterol:GM020=50:10:38.5:1.5 (and buffer) • Where buffer is water, Trehalose, Tris Base, sodium chloride. DSPC is 1,2-distearoyl-sn-glycero-3-phosphocholine. GM020 is DMG-PEG (1,2-Dimyristoyl-rac-glycero-3-methylpolyoxyethylene).
Table 1 summarizes the lipid nanoparticle characterization with respect to various parameters including nanoparticle size (Z avg), polydispersity index (PDI), charge (Zeta potential), encapsulation efficiency and yield.
In the case of `CCCCCCCCC(CCCCCC)C(=O)OCCCN(CCCOC(=O)C(CCCCCC)CCCCCCCC)C(=S)NCCCNC(C)C` (stereo not shown) [TU-008], the “Encapsulation Efficiency” value is reported as 97.75%, the PDI is reported as 0.253 and the “Z Avg.” value is reported as 64.64 nm. The “Zeta Potential” value was −1.07 mV. With `CCCCCCCCC(CCCCCC)C(=O)OCCCN(CCCOC(=O)C(CCCCCC)CCCCCCCC)C(=S)NCCCN(CCC)CCC` (stereo not shown) [TU-007] the “Encapsulation Efficiency” value was 78.96%, the PDI was 0.156 and the “Z Avg.” value was 63.30 nm. The “Zeta Potential” value was −2.68 mV. With `CCCCCCCCC(CCCCCC)C(=O)OCCCCCCN(CCCCCCOC(=O)C(CCCCCC)CCCCCCCC)CCCCNC(=O)OCCSSCCOC(=O)NCCCCN(CCCCCCOC(=O)C(CCCCCC)CCCCCCCC)CCCCCCOC(=O)C(CCCCCC)CCCCCCCC` (stereo not shown) [DS-001] the “Encapsulation Efficiency” value was 84.50%, the PDI was 0.12 and the “Z Avg.” value was 63.0 nm. For the same molecule, the “Zeta Potential” value was −3.74 mV. For `CCCCCCCCC(CCCCCC)C(=O)OCCCCCCN(CCCCO)CCC(=O)OCCCCOC(=O)CCN(CCCCO)CCCCCCOC(=O)C(CCCCCC)CCCCCCCC` (stereo not shown) [BAE-001], the “Encapsulation Efficiency” value was 83.32%, the PDI was 0.141 and the “Z Avg.” value was 111.7 nm. For the same molecule, the “Zeta Potential” value was −0.28 mV. For `CCCCCCCCC(CCCCCC)C(=O)OCCCN(CCCOC(=O)C(CCCCCC)CCCCCCCC)C(=S)NCCCN1CCOCC1` (stereo not shown) [TU-002], the “Encapsulation Efficiency” value was 80.64%, the PDI was 0.133 and the “Z Avg.” value was 76.99 nm. The “Zeta Potential” value was −2.55 mV. For `CCCCCCCCCC1(CCCCCC)OCC(CCCCN(CCCCO)CCCCC2COC(CCCCCC)(CCCCCCCCC)O2)O1` (stereo not shown) [KT-001], the “Encapsulation Efficiency” value was 80.60%, the PDI was 0.08 and the “Z Avg.” value was 84.7 nm. The “Zeta Potential” value was −3.30 mV. For `CCCCCCCCC(CCCCCC)C(=O)OCCCN(CCCOC(=O)C(CCCCCC)CCCCCCCC)C(=S)NCCCN(CCCC)CCCC` (stereo not shown) [TU-009], the “Encapsulation Efficiency” value was 80.76%, the PDI was 0.188 and the “Z Avg.” value was 64.82 nm. For the same molecule, the “Zeta Potential” value was −4.40 mV. In the case of `CCCCCCCCC(CCCCCC)C(=O)OCCCN(CCCOC(=O)C(CCCCCC)CCCCCCCC)C(=S)NCCCN1CCN(C)CC1` (stereo not shown) [TU-004], the “Encapsulation Efficiency” value is reported as 72.53%, the PDI is reported as 0.24 and the “Z Avg.” value is reported as 79.77 nm. The “Zeta Potential” value was −1.27 mV. In the case of `CCCCCCCCC(CCCCCC)C(=O)OCCCN(CCCOC(=O)C(CCCCCC)CCCCCCCC)C(=S)NCCCN` (stereo not shown) [TU-005], the “Encapsulation Efficiency” value is reported as 97.66%, the PDI is reported as 0.282 and the “Z Avg.” value is reported as 176.9 nm. For the same molecule, the “Zeta Potential” value was −0.842 mV. With `CCCCCCCCC(CCCCCC)C(=O)OCCCCCCN(CCCCO)CCCCCCOC(=O)C(CCCCCC)CCCCCCCC` (stereo not shown) [ALC-0315, reference compound] the “Encapsulation Efficiency” value was 83.16%, the PDI was 0.223 and the “Z Avg.” value was 78.67 nm. The “Zeta Potential” value was −4.74 mV. In the case of `CCCCCCCCC(CCCCCC)C(=O)OCCCN(CCCOC(=O)C(CCCCCC)CCCCCCCC)C(=S)NCCCN1CCCCC1C` (stereo not shown) [TU-003], the “Encapsulation Efficiency” value is reported as 90.47%, the PDI is reported as 0.23 and the “Z Avg.” value is reported as 73.29 nm. The “Zeta Potential” value was −0.56 mV. In the case of `CCCCCCCCC(CCCCCC)C(=O)OCCCN(CCCOC(=O)C(CCCCCC)CCCCCCCC)C(=S)NCCCN(CC)CC` (stereo not shown) [TU-006], the “Encapsulation Efficiency” value is reported as 81.48%, the PDI is reported as 0.278 and the “Z Avg.” value is reported as 68.84 nm. For the same molecule, the “Zeta Potential” value was −0.642 mV.

Tested on: female Balb/c mice
Experiment: In vivo efficacy of SARS-CoV-2 Spike mRNA in lipid nanoparticle formulation: serum anti-Spike IgG by ELISA
Conditions: FIGS. 1C-D, intramuscular, 28 days following injection
For `CCCCCCCCCC1(CCCCCC)OCC(CCCCN(CCCCO)CCCCC2COC(CCCCCC)(CCCCCCCCC)O2)O1` (stereo not shown) [KT-001], the “amount of anti-Spike antibody (of SARS-CoV-2) produced in mice” value was “largest amounts”.
